2 molecules from paper PMC4645630 (The Journal of Biological Chemistry, 2015) can be followed below.

In assay [1] the target is T1, GCGR (Homo sapiens, UniProt P47871). Nature of the assay: cAMP accumulation assay, HEK-293 cells expressing GCGR with vector control. The class given is cell-based. More on the design: expressed in transfected cells; host or cells: HEK-293 (293T). As to the method: (§1) Data were analyzed using Prism version 6.0e (GraphPad Software, San Diego, CA). EC50 and Emax values were obtained through fitting of a three-parameter logistic equation. Relative efficacy (log τ) and equilibrium dissociation constants (log KA) were generated through use of an operational model for partial agonism ([23]). […] Statistical differences were analyzed before data were normalized, using a Student's test or one-way analysis of variance (ANOVA) with Bonferroni's or Dunnett's multiple comparisons as appropriate, and p < 0.05 was considered significant.
(In general: Changes in cAMP serve as a functional read-out for many G protein-coupled receptors.)

The target of assay [2] is T2, GCGR with RAMP2 (Homo sapiens, UniProt O60895+P47871).
T2 construct: expressed in transfected cells; host or cells: HEK-293 (293T)
Nature of the assay: cAMP accumulation assay, HEK-293 cells co-expressing GCGR and RAMP2. The class given is cell-based. Conditions: Table 3, cAMP. As to the method: as §1

In assay [3] the target is T1, GCGR. Nature of the assay: Yeast growth reporter assay, GPA1/Gαs chimera strain expressing GCGR with vector. The class given is cell-based. More on the design: expressed in transfected cells; host or cells: HEK-293 (293T). As to the method:
(§2) General yeast procedures were performed as described previously ([17], [18]). […] Mammalian GPCRs and RAMPs were introduced to the yeast strains under the control of the GAPDH promoter using plasmids containing either ura3 (p426-GPD) or leu2 (p425-GPD). Plasmids were transformed in a 1:1 ratio to enable equal expression levels of both the RAMP and receptors. Transformation was achieved using the lithium acetate/single-stranded DNA/polyethylene glycol method as described previously ([20]). Positive transformants were selected and maintained on medium lacking uracil and leucine. Receptor signaling was measured using the yeast growth assay ([21]) adapted as described previously ([17]). Initially, cell growth was performed in SD−URA−LEU medium at 30 °C to select for only those cells expressing both plasmids. […] Fluorescence was measured on a TECAN Infinite M200 microplate reader (TECAN Ultra Evolution, Reading, UK).
(§3) Data were analyzed using Prism version 6.0e (GraphPad Software, San Diego, CA). […] Statistical differences were analyzed before data were normalized, using a Student's test or one-way analysis of variance (ANOVA) with Bonferroni's or Dunnett's multiple comparisons as appropriate, and p < 0.05 was considered significant.
Background: A reporter such as luciferase makes a cellular process visible.

Assay [4] concerns the target T1, GCGR. Nature of the assay: Yeast growth reporter assay, GPA1/Gαi chimera strain expressing GCGR with vector. The class given is cell-based. Further details: expressed in transfected cells; host or cells: HEK-293 (293T). The protocol: as §2, §3
The target in assay [5] is T1, GCGR. Nature of the assay: Whole cell competition binding with [125I]glucagon, GCGR without RAMP2. More on the design: expressed in transfected cells. The settings on record: no RAMP2. As to the method:
Cells were seeded into 6-well plates and grown to 80% confluence before transfection with 1.5 μg of plasmid DNA and incubated for a further 24 h. Medium was then replaced with fresh DMEM, and cells were transferred onto a 96-well plate coated with poly-D-lysine and incubated for 24 h to achieve confluence prior to assay. […] For the assay, cells were washed in assay buffer, 0.1 nM of radioligand and various concentrations of the peptides were added, and the plate was incubated for 16 h at 4 °C. Following washing with ice-cold assay buffer, 100 μl of NaOH (0.1 M) was added to each well, and the plate was incubated for 5 min on ice. Cells were removed, and the plate was washed with 100 μl of HCl (0.1 M). Radioactivity was determined in 2 ml of Safefluor scintillant (PerkinElmer Life Sciences) using a liquid scintillation counter with a count time of 3 min/sample. Values were corrected for nonspecific binding as determined by the amount of radioligand detected bound to cells not expressing GCGR.

Assay [6] concerns the target T2, GCGR with RAMP2. Nature of the assay: Yeast growth reporter assay, GPA1/Gαi chimera strain expressing GCGR and RAMP2. The class given is cell-based. The settings on record: Table 5, yeast GPA1/Gαi. The protocol:
(§4) General yeast procedures were performed as described previously ([17], [18]). […] Mammalian GPCRs and RAMPs were introduced to the yeast strains under the control of the GAPDH promoter using plasmids containing either ura3 (p426-GPD) or leu2 (p425-GPD). Plasmids were transformed in a 1:1 ratio to enable equal expression levels of both the RAMP and receptors. Transformation was achieved using the lithium acetate/single-stranded DNA/polyethylene glycol method as described previously ([20]). Positive transformants were selected and maintained on medium lacking uracil and leucine. Receptor signaling was measured using the yeast growth assay ([21]) adapted as described previously ([17]). Initially, cell growth was performed in SD−URA−LEU medium at 30 °C to select for only those cells expressing both plasmids. Cells were then cultured to remove basal activity in SD−URA−LEU−HIS medium overnight at 30 °C and assayed using fluorescein-di-β-D-glucopyranoside-supplemented medium in the presence of different concentrations of ligand (0.01 nM to 100 mM). Fluorescence was measured on a TECAN Infinite M200 microplate reader (TECAN Ultra Evolution, Reading, UK).
as §1

The target of assay [7] is T2, GCGR with RAMP2. The experiment in a line: Yeast growth reporter assay, GPA1/Gαs chimera strain expressing GCGR and RAMP2. The class given is cell-based. The settings on record: Table 4, yeast GPA1/Gαs. The protocol:
as §4, §1

In assay [8] the target is T2, GCGR with RAMP2. The experiment in a line: Whole cell competition binding with [125I]glucagon, GCGR with RAMP2. The settings on record: whole cells, [125I]glucagon 0.1 nM, 16 h at 4 °C.
[9] abbreviates: GCGR + RAMP2, mean ± S.E., five repeats.
Setting [10] is: RAMP2, operational model relative to glucagon.
The mark [11] stands for this setting: RAMP2, percentage of glucagon response without RAMP co-expression.

T1 sequence (P47871 26-477): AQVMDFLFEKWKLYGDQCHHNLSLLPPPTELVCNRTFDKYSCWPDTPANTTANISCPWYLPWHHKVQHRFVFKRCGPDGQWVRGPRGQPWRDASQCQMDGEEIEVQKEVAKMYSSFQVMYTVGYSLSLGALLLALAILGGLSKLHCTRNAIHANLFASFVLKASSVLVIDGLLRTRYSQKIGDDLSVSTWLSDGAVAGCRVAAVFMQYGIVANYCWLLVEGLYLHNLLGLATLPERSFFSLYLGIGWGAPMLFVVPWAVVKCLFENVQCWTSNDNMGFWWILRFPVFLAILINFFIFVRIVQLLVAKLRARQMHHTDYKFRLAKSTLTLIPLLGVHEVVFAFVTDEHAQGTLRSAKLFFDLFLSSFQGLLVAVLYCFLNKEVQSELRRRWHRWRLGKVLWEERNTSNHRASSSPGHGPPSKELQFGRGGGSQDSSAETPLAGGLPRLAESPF
T2 sequence (P47871 26-477): as above
T2 sequence (O60895 43-175 partner): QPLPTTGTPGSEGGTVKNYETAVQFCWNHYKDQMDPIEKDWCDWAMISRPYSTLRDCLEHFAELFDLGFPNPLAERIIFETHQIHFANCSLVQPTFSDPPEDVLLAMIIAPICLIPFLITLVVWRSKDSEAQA

With des-His^1-[Glu^9]glucagon(1–29) amide, the “effect of GCGR antagonist on GLP-1 and liraglutide signaling through the GCGR” value at GCGR [1] (cAMP, HEK-293 cells with GCGR) is on record as “inhibited”.

One may read the EC50 as the concentration at which the effect is half-maximal. Take `CCCCCCCCCCCCCCCC(=O)N[C@@H](CCC(=O)NCCCC[C@H](NC(=O)[C@H](C)NC(=O)[C@H](C)NC(=O)[C@H](CCC(N)=O)NC(=O)CNC(=O)[C@H](CCC(=O)O)NC(=O)[C@H](CC(C)C)NC(=O)[C@H](Cc1ccc(O)cc1)NC(=O)[C@H](CO)NC(=O)[C@H](CO)NC(=O)[C@@H](NC(=O)[C@H](CC(=O)O)NC(=O)[C@H](CO)NC(=O)[C@@H](NC(=O)[C@H](Cc1ccccc1)NC(=O)[C@@H](NC(=O)CNC(=O)[C@H](CCC(=O)O)NC(=O)[C@H](C)NC(=O)[C@@H](N)Cc1c[nH]cn1)[C@@H](C)O)[C@@H](C)O)C(C)C)C(=O)N[C@@H](CCC(=O)O)C(=O)N[C@@H](Cc1ccccc1)C(=O)N[C@H](C(=O)N[C@@H](C)C(=O)N[C@@H](Cc1c[nH]c2ccccc12)C(=O)N[C@@H](CC(C)C)C(=O)N[C@H](C(=O)N[C@@H](CCCNC(=N)N)C(=O)NCC(=O)N[C@@H](CCCNC(=N)N)C(=O)NCC(=O)O)C(C)C)[C@@H](C)CC)C(=O)O` [Liraglutide]: the “log τ” value is recorded as “N.R” at GCGR with RAMP2 [2] (GCGR + RAMP2, coupling efficiency, operational model relative to glucagon); “N.R” at GCGR with RAMP2 [6] (setting [10]); “N.R” at GCGR with RAMP2 [7] (setting [10]). Further, the pKA entry is recorded as “N.R” on GCGR with RAMP2 [2] (GCGR + RAMP2, operational model for partial agonism relative to glucagon); “N.R” at GCGR with RAMP2 [6] (setting [10]); “N.R” on GCGR with RAMP2 [7] (setting [10]). Moreover, the Emax entry at GCGR with RAMP2 [2] (GCGR + RAMP2, percentage of glucagon response without RAMP co-transfection) was “N.R”; on GCGR [3], 80.1 ± 7.5%; at GCGR [4], 84 ± 9.4%; at GCGR with RAMP2 [6] (setting [11]) it was “N.R”; on GCGR with RAMP2 [7] (setting [11]) it was “N.R”. Further, the pEC50 entry at GCGR with RAMP2 [2] (HEK-293, GCGR + RAMP2, mean ± S.E., five repeats) was “N.R”; at GCGR with RAMP2 [6] (setting [9]), “N.R”; at GCGR with RAMP2 [7] (setting [9]), “N.R”. The EC50 at GCGR [3] (Table 4, yeast GPA1/Gαs, GCGR + vector, mean ± S.E., five repeats, SEM) is 3160 nM; at GCGR [4] (Table 5, yeast GPA1/Gαi, GCGR + vector, mean ± S.E., five repeats, SEM), 20 nM; at GCGR [1] (Table 3, cAMP, HEK-293, GCGR + vector, mean ± S.E., five repeats, SEM) it was 10 nM. For the same molecule, the “affinity for the GCGR relative to the native peptide (glucagon)” value at GCGR [5] (whole cell competition binding) is “higher affinity”. Also, the “binding to the GCGR in competition with glucagon” value on GCGR [5] (whole cells, [125I]glucagon 0.1 nM, 16 h at 4 °C) is “bound to the GCGR”. For the same molecule, at GCGR with RAMP2 [8], the “binding to the GCGR upon RAMP2 co-transfection” value is “failed to bind”.
